{"source": "paper PMC12386283", "about": "“Elucidating the Complex Structural and Molecular Mechanisms Driving P-Glycoprotein-Mediated Transport of Cardiac Glycosides” (International Journal of Molecular Sciences, 2025)", "key": {"[1]": {"target": "T1, wild-type mouse Pgp (MDR3) (Mus musculus, UniProt P21447)", "T1 sequence (P21447 whole entry)": "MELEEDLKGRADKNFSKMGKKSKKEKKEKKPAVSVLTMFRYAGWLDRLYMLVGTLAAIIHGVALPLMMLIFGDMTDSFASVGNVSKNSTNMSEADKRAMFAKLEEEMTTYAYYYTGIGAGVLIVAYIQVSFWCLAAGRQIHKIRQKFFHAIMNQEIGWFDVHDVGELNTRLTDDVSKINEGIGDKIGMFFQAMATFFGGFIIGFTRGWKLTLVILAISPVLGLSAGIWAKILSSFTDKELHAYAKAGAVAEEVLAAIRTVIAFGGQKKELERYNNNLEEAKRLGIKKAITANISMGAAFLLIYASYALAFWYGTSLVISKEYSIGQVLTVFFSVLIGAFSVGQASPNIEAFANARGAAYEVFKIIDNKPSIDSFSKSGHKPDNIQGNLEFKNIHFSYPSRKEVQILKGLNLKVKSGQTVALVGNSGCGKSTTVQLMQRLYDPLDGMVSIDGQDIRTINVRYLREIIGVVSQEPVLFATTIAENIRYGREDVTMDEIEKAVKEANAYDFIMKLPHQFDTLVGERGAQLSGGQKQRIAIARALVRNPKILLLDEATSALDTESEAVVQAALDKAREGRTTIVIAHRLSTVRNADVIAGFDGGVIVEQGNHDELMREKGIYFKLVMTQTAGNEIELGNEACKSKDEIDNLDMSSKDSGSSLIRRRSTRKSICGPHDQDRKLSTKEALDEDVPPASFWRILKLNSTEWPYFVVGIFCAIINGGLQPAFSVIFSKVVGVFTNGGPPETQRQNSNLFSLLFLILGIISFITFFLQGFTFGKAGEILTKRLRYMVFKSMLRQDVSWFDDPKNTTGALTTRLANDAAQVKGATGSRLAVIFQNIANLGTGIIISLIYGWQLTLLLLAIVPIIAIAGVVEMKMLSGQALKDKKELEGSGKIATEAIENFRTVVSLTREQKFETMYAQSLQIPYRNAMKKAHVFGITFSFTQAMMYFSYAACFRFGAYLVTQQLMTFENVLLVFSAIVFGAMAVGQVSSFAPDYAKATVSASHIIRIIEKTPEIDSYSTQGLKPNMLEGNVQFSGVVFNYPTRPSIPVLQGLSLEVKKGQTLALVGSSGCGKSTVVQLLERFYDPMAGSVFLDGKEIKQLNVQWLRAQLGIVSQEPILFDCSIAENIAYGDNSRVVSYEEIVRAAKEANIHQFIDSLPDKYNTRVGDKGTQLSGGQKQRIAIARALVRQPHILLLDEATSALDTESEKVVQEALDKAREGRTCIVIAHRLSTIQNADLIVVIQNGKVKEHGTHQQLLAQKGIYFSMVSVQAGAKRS", "from_the_text": "The STDD NMR technique is a robust method used to characterize the interaction between a drug and receptor protein [36, 86]. This technique utilizes a saturated low-strength radio frequency (RF) to selectively excite the receptor protein. […] Due to the localization of Pgp, most of its substrates are lipophilic, resulting in a probable non-specific interaction between its substrates and liposomes in the observed STD NMR spectrum. Therefore, STD NMR of liposomes in the presence of drugs was performed. The resulting spectrum was subtracted from the ^1H STD NMR spectrum obtained from the drug in the presence of proteoliposome (Pgp reconstituted into liposome) to achieve a saturation transfer double-difference (STDD) NMR spectrum, which nullified the STD observations of the drugs in the presence of liposomes.\nThis technique was performed as previously described. […] The NMR tubes with the sample were centrifuged at 3000× g for 5 min. To suppress the background signals caused by water, a tailored gradient pulse sequence known as water suppression by gradient-tailored excitation (WATERGATE) was also included. A train of 50 ms Gaussian-shaped selective pulses was used to selectively excite and saturate Pgp for two seconds, and a relaxation delay of five seconds was also used. The STD NMR spectra for both the control and the samples were obtained through phase cycling, where the Pgp irradiation resonance was alternated between 1.5 ppm and 42 ppm on and off resonance, respectively, for 512 scans, creating the ^1H NMR spectrum.\nFor this experiment, the NMR studies were performed on a Bruker Avance NEO 800 MHz NMR spectrometer with a 1.7 mm TCI H{CN} probe at 25 °C. The STD NMR data generated were analyzed using iNMR software (Nucleomatic, Molfetta, Italy), Igor Pro 6.2, and Mnova 14.2.0 (Mastrelab Research S.L., Santiago de Compostela, Spain)."}, "[2]": {"target": "T1, wild-type mouse Pgp (MDR3)", "method": "Overexpression of wild-type mouse Pgp (MDR3) was achieved by using genetically engineered strains of Pichia pastoris with a 6X histidine tag. The cells were cultured in glycerol media, and methanol was used to induce the overexpression of Pgp at the Bioexpression and Fermentation Facility (BFF), University of Georgia, Athens, GA, USA. A repeated cycle of freezing using liquid nitrogen, blending, and thawing was used to lyse the Pgp-expressing P. pastoris cells. The protein was purified using affinity chromatography with nickel-nitrilotriacetic acid (Ni-NTA) resin (Thermo Fisher Scientific, Waltham, MA, USA). DDM was used to solubilize the protein, and the solution was concentrated using Amicon Ultra-15 100 kDa cut-off filters (EMD Millipore, Billerica, MA, USA). The concentration of purified protein was measured at 280 nm using a calculated extinction coefficient of 1.28 per mg mL^−1 on a Nanodrop (DeNovix, Wilmington, DE, USA). […] The purified DDM-solubilized Pgp was aliquoted and stored at −80 °C for future analysis.\nApproximately 40 µL of DDM-solubilized Pgp was dialyzed for two hours against HEPES buffer (20 mM HEPES, 100 mM NaCl, 5 mM MgCl2, 2 mM DTT, pH 7.4) to remove any remnants of the detergent, DDM. The dialyzed protein was mixed with 4 mg mL^−1 of the extruded liposomes and incubated on ice for at least one hour to allow Pgp to integrate into the liposomes. To remove any additional detergent and further facilitate Pgp integration into the liposome, the solution was dialyzed for a second time for two hours in HEPES buffer to form proteoliposomes, and the concentration of Pgp reconstituted in liposomes was determined using the Bio-Rad DC Protein assay. Finally, the solution was aliquoted and stored at −80 °C for future use.\nAcrylamide, an aqueous collisional quencher, can be used to determine the changes in conformation upon Pgp-drug interaction. The principle of this technique is that as the drug interacts with the protein, the conformation of the accessible tryptophan residues in the protein also changes, resulting in a shift in fluorescence intensity. For this experiment, to measure the fluorescence of Pgp reconstituted in liposomes, in the presence (250 µM) or absence of drug(s), the excitation and emission wavelengths used were 295 nm and 330 nm, respectively. The proteoliposomes were diluted to a final concentration of 1 µM in Chifflet buffer (pH 7.4) containing 2 mM DTT, and it was titrated against an increasing concentration of acrylamide. A concentration of 11 µM N-acetyl-L-tryptophanamide (NATA), an analog of tryptophan, was used as a positive control to determine non-specific quenching. A saturated concentration of AMPPNP (3.2 mM), a non-hydrolysable form of ATP, was used to generate an outward-open conformation of Pgp. All the experiments for acrylamide quenching were performed at 21 °C. To correct the fluorescence intensities for background, dilution, and inner filter effects, […] was used. A Stern–Volmer plot was constructed with F0(corrected)/F(corrected) versus acrylamide concentration. The slope of the curve determined the degree of quenching, and it was related to the Stern–Volmer constant (Ksv) by Equation (4), as follows:(4) Focorrected/Fcorrected=1+KsvQ where F0(corrected)/F(corrected) = Stern–Volmer plot; Ksv = Stern–Volmer constant; and [Q] = acrylamide concentration.", "remark": "listed apart in the source"}, "[3]": {"tested_on": "Pgp", "details": "CLEFF9 cells, cited from earlier work"}, "[4]": {"details": "250 µM drug, 3.2 mM AMPPNP, 21 °C"}, "[5]": {"details": "250 µM drug, 3.2 mM AMPPNP, inferred from Ksv"}, "[6]": {"details": "250 µM drug, absence of AMPPNP, 21 °C, apo-Pgp 2.5 ± 0.04"}, "[7]": {"details": "250 µM drug, no AMPPNP, inferred from Ksv"}}, "note": "Where “and” joins values, the source holds several entries; their conditions need not be identical. Identical values can stand only once. Like-named read-outs stand apart in the source and are kept apart here.", "data": [{"smiles": "C[C@]12CC[C@H](O)C[C@H]1CC[C@@H]1[C@@H]2CC[C@]2(C)[C@@H](C3=CC(=O)OC3)CC[C@]12O", "note": "[Digitoxigenin, (3β,5β)-3,14-Dihydroxy-card-20(22)-enolide]", "values": [{"measurement": "Interaction (Region/Group) Pgp (STDD-NMR Data)", "setting": "[1]; 1 mM drug, 1 µM Pgp, 25 °C", "value": "Protons on C1, C12, C18, C19 of steroid; C22 of lactone"}, {"measurement": "Drug-induced Ksv of Pgp (acrylamide quenching), AMPPNP (+)", "setting": "[2]; [4]", "value": "1.51 ± 0.02", "unit": "M⁻¹"}, {"measurement": "Drug-induced Ksv of Pgp (acrylamide quenching), AMPPNP (+)", "setting": "[2]; 250 µM drug, 3.2 mM AMPPNP, 21 °C, listed as digitoxigenin", "value": "1.51 ± 0.02 M⁻¹ and 1.51 ± 0.01 M⁻¹"}, {"measurement": "Pgp conformation with drug in the presence of a nucleotide", "setting": "[2]; [5]", "value": "outward open"}, {"measurement": "Drug-induced Ksv of Pgp (acrylamide quenching), AMPPNP (-)", "setting": "[2]; [6]", "value": "1.91 ± 0.04", "unit": "M⁻¹"}, {"measurement": "Pgp conformation upon drug binding in the absence of a nucleotide", "setting": "[2]; [7]", "value": "intermediate"}]}, {"smiles": "C[C@]12CC[C@H](O)C[C@H]1CC[C@@H]1[C@@H]2C[C@@H](O)[C@]2(C)[C@@H](C3=CC(=O)OC3)CC[C@]12O", "note": "[Digoxigenin, 3β,12β,14-Trihydroxy-5β,20(22)-cardenolide]", "values": [{"measurement": "Decrease of transport rate on treatment with erythromycin", "setting": "[3]", "value": "about 43%"}, {"measurement": "Interaction (Region/Group) Pgp (STDD-NMR Data)", "setting": "[1]; 1 mM drug, 1 µM Pgp, 25 °C", "value": "Protons on C1, C3,C12, C17, C18, C19 of steroid; C21, C22 of lactone"}, {"measurement": "Drug-induced Ksv of Pgp (acrylamide quenching), AMPPNP (+)", "setting": "[2]; [4]", "value": "1.70 ± 0.01", "unit": "M⁻¹"}, {"measurement": "Pgp conformation with drug in the presence of a nucleotide", "setting": "[2]; [5]", "value": "outward open"}, {"measurement": "Drug-induced Ksv of Pgp (acrylamide quenching), AMPPNP (-)", "setting": "[2]; [6]", "value": "2.26 ± 0.04", "unit": "M⁻¹"}, {"measurement": "Pgp conformation upon drug binding in the absence of a nucleotide", "setting": "[2]; [7]", "value": "intermediate"}]}, {"smiles": "C[C@H]1O[C@@H](O[C@H]2[C@@H](O)C[C@H](O[C@H]3[C@@H](O)C[C@H](O[C@H]4CC[C@@]5(C)[C@H](CC[C@@H]6[C@@H]5C[C@@H](O)[C@]5(C)[C@@H](C7=CC(=O)OC7)CC[C@]65O)C4)O[C@@H]3C)O[C@@H]2C)C[C@H](O)[C@@H]1O", "note": "[Digoxin]", "values": [{"measurement": "Effect of erythromycin treatment on Pgp-mediated efflux rate", "setting": "[3]; in words", "value": "did not affect"}, {"measurement": "Interaction (Region/Group) Pgp (STDD-NMR Data)", "setting": "[1]; mouse, not told, 1 mM, pH 7.4", "value": "Protons on C3,C18, C19 of steroid; C22 of lactone; C3,C5,C6 of sugar"}, {"measurement": "Drug-induced Ksv of Pgp (acrylamide quenching), AMPPNP (+)", "setting": "[2]", "value": "1.51 ± 0.02 and 1.51 ± 0.02 M^−1"}, {"measurement": "Drug-induced Ksv of Pgp (acrylamide quenching), AMPPNP (-)", "setting": "[2]", "value": "2.55 ± 0.06 and 2.55 ± 0.06 M^−1"}, {"measurement": "Pgp conformation upon drug binding in the absence of a nucleotide", "setting": "[2]", "value": "no effect"}, {"measurement": "Pgp conformation with drug in the presence of a nucleotide", "setting": "[2]", "value": "outward open"}]}]}
